Test systems include OVCAR-8 ovarian; CAKI-1 renal; DU-145 prostate; NCI-H460 lung; HL-60(TB) leukemia; A549 NSCLC; RPMI-8226 leukemia; SF-268 CNS; NCI/ADR-RES ovarian; HCC-2998 colon; MALME-3M melanoma; NCI-H23 lung; PC-3 prostate; UO-31 renal; MOLT-4 leukemia; HCT-15 colon; T-47D breast; SK-MEL-28 melanoma; COLO 205 colon; TK-10 renal.
Assay in all cases: NCI anticancer screen, dose series, 48 h

In PubChem BioAssay (NCI) one finds TGI data, which are given here for six compounds.

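Grown in 96-well plates, cells were treated for 48 hours with each compound at five concentrations. Insufficient inhibition: endpoint recorded as highest concentration tested. Definition used: TGI = concentration required for complete inhibition of growth.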

As for `CC(=O)OCC(OC(C)=O)C(OC(C)=O)C(OC(C)=O)C(/C=N\Nc1nc2ccccc2c(=O)[nH]1)OC(C)=O` (stereo not drawn), the TGI with OVCAR-8 ovarian, with CAKI-1 renal, with DU-145 prostate, in the experiment with NCI-H460 lung, in the experiment with HL-60(TB) leukemia and with A549 NSCLC was over 100 µM in each case. For the same compound, the TGI in the experiment with RPMI-8226 leukemia, in the experiment with SF-268 CNS, in the experiment with NCI/ADR-RES ovarian, in the experiment on HCC-2998 colon, in the experiment on MALME-3M melanoma and in the experiment on NCI-H23 lung was over 100 µM throughout. The TGI in the experiment on PC-3 prostate, with UO-31 renal, in the experiment with MOLT-4 leukemia, with HCT-15 colon, with T-47D breast and in the experiment with SK-MEL-28 melanoma was over 100 µM in each case. For the same compound, the TGI in the experiment on COLO 205 colon was over 100 µM.

With `COc1cc(CNC(=O)CCCCCCCCCCSSCCCCCCCCCCC(=O)NCc2ccc(O)c(OC)c2)ccc1O`, the TGI in the experiment on OVCAR-8 ovarian, in the experiment with CAKI-1 renal, in the experiment on DU-145 prostate, with NCI-H460 lung, in the experiment with HL-60(TB) leukemia and in the experiment with A549 NSCLC was over 10 µM each time. For the same compound, the TGI with RPMI-8226 leukemia, with SF-268 CNS, with NCI/ADR-RES ovarian, in the experiment on HCC-2998 colon, with MALME-3M melanoma and in the experiment with NCI-H23 lung was over 10 µM each time. In addition, the TGI in the experiment with TK-10 renal, in the experiment with PC-3 prostate, in the experiment with MOLT-4 leukemia, in the experiment with HCT-15 colon, in the experiment on T-47D breast and in the experiment on SK-MEL-28 melanoma was over 10 µM in each case. This compound registered a TGI with COLO 205 colon of over 10 µM.

Turning to `Clc1ccc(N=Cc2cc3cc(Br)ccc3nc2Cl)cc1`, the TGI was over 50 µM in the experiment on OVCAR-8 ovarian; over 50 µM with CAKI-1 renal; over 50 µM in the experiment on DU-145 prostate; over 50 µM in the experiment with NCI-H460 lung; 46.4 µM in the experiment on HL-60(TB) leukemia; 38.4 µM with RPMI-8226 leukemia. Further, the TGI with SF-268 CNS, in the experiment on NCI/ADR-RES ovarian, in the experiment on HCC-2998 colon, in the experiment with MALME-3M melanoma, in the experiment on NCI-H23 lung and in the experiment on PC-3 prostate was over 50 µM each time. Further, the TGI in the experiment on UO-31 renal, in the experiment on MOLT-4 leukemia, with HCT-15 colon, in the experiment with T-47D breast, with SK-MEL-28 melanoma and with COLO 205 colon was over 50 µM in each case.

Turning to `CCC(CCCCC1CC[C@H]2CC(=O)C[C@@H]12)OC` (stereo partly drawn), the TGI with OVCAR-8 ovarian, with CAKI-1 renal, with DU-145 prostate, with NCI-H460 lung, in the experiment with HL-60(TB) leukemia and in the experiment with A549 NSCLC was over 100 µM each time. In addition, the TGI with RPMI-8226 leukemia, in the experiment on SF-268 CNS, in the experiment with NCI/ADR-RES ovarian, in the experiment with HCC-2998 colon, in the experiment with MALME-3M melanoma and in the experiment with NCI-H23 lung was over 100 µM in each case. The TGI with TK-10 renal, with PC-3 prostate, with MOLT-4 leukemia, in the experiment on HCT-15 colon, with T-47D breast and in the experiment with SK-MEL-28 melanoma was over 100 µM each time. In the experiment with COLO 205 colon, this compound had a TGI of over 100 µM.

Turning to `Cc1nn(C(=O)c2ccncc2)c2c1C(c1ccccc1O)SC(N)=N2` (stereo not drawn), the TGI in the experiment with OVCAR-8 ovarian, with CAKI-1 renal, in the experiment with DU-145 prostate, in the experiment with NCI-H460 lung, with HL-60(TB) leukemia and in the experiment on A549 NSCLC was over 10 µM in each case. For the same compound, the TGI with RPMI-8226 leukemia, with SF-268 CNS, with NCI/ADR-RES ovarian, in the experiment on HCC-2998 colon, in the experiment with MALME-3M melanoma and with NCI-H23 lung was over 10 µM in each case. Besides, the TGI in the experiment with TK-10 renal, with PC-3 prostate, in the experiment on MOLT-4 leukemia, in the experiment with HCT-15 colon, in the experiment on T-47D breast and in the experiment on SK-MEL-28 melanoma was over 10 µM each time. In addition, in the experiment on COLO 205 colon, the TGI is over 10 µM.

Turning to `CN(C)N1C(=O)CC2(CCN(CCCC(=O)c3ccc(F)cc3)CC2)C1=O`, the TGI with OVCAR-8 ovarian, in the experiment with CAKI-1 renal, with DU-145 prostate, in the experiment with NCI-H460 lung, in the experiment on HL-60(TB) leukemia and with A549 NSCLC was over 100 µM each time. In addition, the TGI in the experiment on RPMI-8226 leukemia, with SF-268 CNS, in the experiment with NCI/ADR-RES ovarian, in the experiment on MALME-3M melanoma, in the experiment on NCI-H23 lung and in the experiment on TK-10 renal was over 100 µM throughout. For the same compound, the TGI in the experiment on PC-3 prostate, in the experiment on UO-31 renal, in the experiment with MOLT-4 leukemia, in the experiment on HCT-15 colon, in the experiment on T-47D breast and in the experiment with SK-MEL-28 melanoma was over 100 µM throughout. The TGI with COLO 205 colon is over 100 µM.
